# Experiment: in vitro
# Settings: for Measured concentration of analyte PEA, 0 min / Measured concentration of analyte PEA, 10 min / Measured concentration of analyte PEA, 20 min / Measured concentration of analyte PEA, 30 min / Measured concentration of analyte PEA, 60 min / % Remaining of Initial, 0 min / % Remaining of Initial, 10 min / % Remaining of Initial, 20 min / % Remaining of Initial, 30 min / % Remaining of Initial, 60 min / microsomal CLint at 1 μM / half-life at 1 μM / Concentration, analyte PEA / % Remaining of Initial (n = 1) / Measured concentration of PEA (analyte) / % Remaining of Initial / microsomal CLint / half-life: male; for Measured concentration of analyte PEA, 0 min / Measured concentration of analyte PEA, 10 min / Measured concentration of analyte PEA, 20 min / Measured concentration of analyte PEA, 30 min / Measured concentration of analyte PEA, 60 min / % Remaining of Initial, 0 min / % Remaining of Initial, 10 min / % Remaining of Initial, 20 min / % Remaining of Initial, 30 min / % Remaining of Initial, 60 min / Concentration, analyte PEA / % Remaining of Initial (n = 1) / Measured concentration of PEA (analyte) / % Remaining of Initial: 1 μM; for % Remaining of Initial, 0 min / % Remaining of Initial, 10 min / % Remaining of Initial, 20 min / % Remaining of Initial, 30 min / % Remaining of Initial, 60 min / microsomal CLint at 1 μM / half-life at 1 μM / % Remaining of Initial (n = 1) / % Remaining of Initial / microsomal CLint / half-life: microsomes
# Experimental: (§1) Reaction mixture, minus cofactors, was prepared as described below. Test article was added into the reaction mixture at a final concentration of 1 μM. […] An aliquot of the reaction mixture (without cofactor) was equilibrated in a shaking water bath at 37° C. for 3 minutes. The reaction was initiated by the addition of cofactor, and the mixture was incubated in a shaking water bath at 37° C. Aliquots (100 μL) were withdrawn at 0, 10, 20, 30, and 60 minutes. Test article samples were immediately combined with 300 μL of ice-cold acetonitrile containing 1% formic acid. Control samples were immediately combined with 400 μL of ice-cold 50/50 acetonitrile (ACN)/dH2O containing 0.1% formic acid and internal standard to terminate the reaction. Samples were then mixed and centrifuged to precipitate proteins. Calibration standards were prepared in matched matrix. Samples and standards were assayed by LC-MS/MS using electrospray ionization for both dosed prodrug and expected drug (PEA). Analytical conditions are outlined in Appendix 8-1. Test article concentration at each time point was compared to test article concentration at time 0 to determine the percent remaining at each time point. Half-lives were calculated using GraphPad software, fitting to a single-phase exponential decay equation.
# Reaction mixture, minus cofactors, was prepared as described below. Test article was added into the reaction mixture at a final concentration of 1 μM. […] An aliquot of the reaction mixture (without cofactor) was equilibrated in a shaking water bath at 37° C. for 5 minutes. Reaction was initiated by the addition of cofactor, and the mixture was incubated in a shaking water bath at 37° C. Aliquots (100 μL) were withdrawn at 0, 10, 20, 30, and 60 minutes. Test article samples were immediately combined with 300 μL of ice-cold acetonitrile containing 1% formic acid. Control samples were immediately combined with 400 μL of ice-cold 50/50 acetonitrile (ACN)/dH2O containing 0.1% formic acid and internal standard to terminate the reaction. Samples were then mixed and centrifuged to precipitate proteins. Calibration standards were prepared in matched matrix. Samples and standards were assayed by LC-MS/MS using electrospray ionization for both the dosed prodrug and the expected drug (PEA). Analytical conditions are outlined in Appendix 10-1. Test article concentration at each time point was compared to the test article concentration at time 0 to determine the percent remaining at each time point. Half-lives were calculated using GraphPad software, fitting to a single-phase exponential decay equation.
# as §1, with “minutes. Reaction” for “minutes. The reaction”, “300 μL,” for “300 μL”, “Appendix 13-1.” for “Appendix 8-1.”
# Reaction mixture, minus cofactors, was prepared as described below.
# [1] = Beagle, dog, calculated value in parentheses
# [2] = CD-1, mouse, calculated value in parentheses
# [3] = Beagle, Control Compound, Dog liver microsomes
# [4] = Beagle, Control compound, Dog liver microsomes
# [5] = Beagle, control compound, dog liver microsomes
# [6] = CD-1, mouse, Control Compound, Mouse liver microsomes
smiles,measurement,setting,value
CCCCCCCCCCCCCCCC(=O)NCCOC(=O)CCC(=O)OCC(O)CO (stereo not shown) [Compound I-9],"Measured concentration of analyte PEA, 0 min","Beagle, dog, 0 min",0.39 µM
same,"Measured concentration of analyte PEA, 10 min","Beagle, dog, 10 min",0.42 µM
same,"Measured concentration of analyte PEA, 20 min","Beagle, dog, 20 min",0.32 µM
same,"Measured concentration of analyte PEA, 30 min","Beagle, dog, 30 min",0.26 µM
same,"Measured concentration of analyte PEA, 60 min","Beagle, dog, 60 min",0.18 µM
same,"% Remaining of Initial, 0 min","Beagle, dog, 0 h",100%
same,"% Remaining of Initial, 10 min","Beagle, dog, 10 min",<1.0%
same,"% Remaining of Initial, 20 min","Beagle, dog, 20 min",<1.0%
same,"% Remaining of Initial, 30 min","Beagle, dog, 0.5 h",<1.0%
same,"% Remaining of Initial, 60 min","Beagle, dog, 1 h",<1.0%
same,microsomal CLint at 1 μM,"Beagle, dog",> 1380 µL/min/mg
same,half-life at 1 μM,"Beagle, dog",< 1 min
same,"Measured concentration of analyte PEA, 0 min","CD-1, mouse, 0 min",0.52 µM
same,"Measured concentration of analyte PEA, 10 min","CD-1, mouse, 10 min",0.29 µM
same,"Measured concentration of analyte PEA, 20 min","CD-1, mouse, 20 min",0.18 µM
same,"Measured concentration of analyte PEA, 30 min","CD-1, mouse, 30 min",0.11 µM
same,"Measured concentration of analyte PEA, 60 min","CD-1, mouse, 60 min",0.036 µM
same,"% Remaining of Initial, 0 min","CD-1, mouse, 0 h",100%
same,"% Remaining of Initial, 10 min","CD-1, mouse, 10 min",<1.0%
same,"% Remaining of Initial, 20 min","CD-1, mouse, 20 min",<1.0%
same,"% Remaining of Initial, 30 min","CD-1, mouse, 0.5 h",<1.0%
same,"% Remaining of Initial, 60 min","CD-1, mouse, 1 h",<1.0%
same,microsomal CLint at 1 μM,"CD-1, mouse",> 1380 µL/min/mg
same,half-life at 1 μM,"CD-1, mouse",< 1 min
CCCCCCCCCCCCCCCC(=O)NCCOC(=O)CCC(=O)OCC(COC(=O)CCC)OC(=O)CCC (stereo not shown) [Compound I-11],"Measured concentration of analyte PEA, 0 min","Beagle, dog, 0 min",0.032 µM
same,"Measured concentration of analyte PEA, 10 min","Beagle, dog, 10 min",0.32 µM
same,"Measured concentration of analyte PEA, 20 min","Beagle, dog, 20 min",0.26 µM
same,"Measured concentration of analyte PEA, 30 min","Beagle, dog, 30 min",0.20 µM
same,"Measured concentration of analyte PEA, 60 min","Beagle, dog, 60 min",0.097 µM
same,"% Remaining of Initial, 0 min","Beagle, dog, 0 h",100%
same,"% Remaining of Initial, 10 min","Beagle, dog, 10 min",3.6%
same,"% Remaining of Initial, 20 min","Beagle, dog, 20 min",<1.0%
same,"% Remaining of Initial, 30 min","Beagle, dog, 0.5 h",<1.0%
same,"% Remaining of Initial, 60 min","Beagle, dog, 1 h",<1.0%
same,microsomal CLint at 1 μM,"Beagle, dog",665 µL/min/mg
same,half-life at 1 μM,"Beagle, dog",2.1 min
same,"Measured concentration of analyte PEA, 0 min","CD-1, mouse, 0 min",0.22 µM
same,"Measured concentration of analyte PEA, 10 min","CD-1, mouse, 10 min",0.32 µM
same,"Measured concentration of analyte PEA, 20 min","CD-1, mouse, 20 min",0.18 µM
same,"Measured concentration of analyte PEA, 30 min","CD-1, mouse, 30 min",0.12 µM
same,"Measured concentration of analyte PEA, 60 min","CD-1, mouse, 60 min",0.030 µM
same,"% Remaining of Initial, 0 min","CD-1, mouse, 0 h",100%
same,"% Remaining of Initial, 10 min","CD-1, mouse, 10 min",3.2%
same,"% Remaining of Initial, 20 min","CD-1, mouse, 20 min",<1.0%
same,"% Remaining of Initial, 30 min","CD-1, mouse, 0.5 h",<1.0%
same,"% Remaining of Initial, 60 min","CD-1, mouse, 1 h",<1.0%
same,microsomal CLint at 1 μM,"CD-1, mouse",687 µL/min/mg
same,half-life at 1 μM,"CD-1, mouse",2 min
CCCCC/C=C\C/C=C\CCCCCCCC(=O)OCC(COC(=O)CCC(=O)OCCNC(=O)CCCCCCCCCCCCCCC)OC(=O)CCCCCCC/C=C\C/C=C\CCCCC (stereo not shown) [Compound I-13],"Concentration, analyte PEA","Beagle, dog, 0 min",0 nM
same,"Concentration, analyte PEA","Beagle, dog, 10 min",0 nM
same,"Concentration, analyte PEA","Beagle, dog, 20 min",0 nM
same,"Concentration, analyte PEA","Beagle, dog, 30 min",0 nM
same,"Concentration, analyte PEA","Beagle, dog, 60 min",0 nM
same,% Remaining of Initial (n = 1),"Beagle, dog, 0 h",100%
same,% Remaining of Initial (n = 1),"Beagle, dog, 10 min",78%
same,% Remaining of Initial (n = 1),"Beagle, dog, 20 min",76%
same,% Remaining of Initial (n = 1),"Beagle, dog, 0.5 h",56%
same,% Remaining of Initial (n = 1),"Beagle, dog, 1 h",32%
same,microsomal CLint at 1 μM,"Beagle, dog",36.2 µL/min/mg
same,half-life at 1 μM,"Beagle, dog",38 min
same,"Concentration, analyte PEA","CD-1, mouse, 0 min",0 nM
same,"Concentration, analyte PEA","CD-1, mouse, 10 min",0 nM
same,"Concentration, analyte PEA","CD-1, mouse, 20 min",0 nM
same,"Concentration, analyte PEA","CD-1, mouse, 30 min",0 nM
same,"Concentration, analyte PEA","CD-1, mouse, 60 min",0 nM
same,% Remaining of Initial (n = 1),"CD-1, mouse, 0 h",100%
same,% Remaining of Initial (n = 1),"CD-1, mouse, 10 min",69%
same,% Remaining of Initial (n = 1),"CD-1, mouse, 20 min",75%
same,% Remaining of Initial (n = 1),"CD-1, mouse, 0.5 h",54%
same,% Remaining of Initial (n = 1),"CD-1, mouse, 1 h",44%
same,microsomal CLint at 1 μM,"CD-1, mouse",29.1 µL/min/mg
same,half-life at 1 μM,"CD-1, mouse",48 min
CCCCCCCCCCCCCCCC(=O)NCCOC(=O)CCC(=O)OC(COC(=O)CCC)COC(=O)CCC [Compound I-16],Measured concentration of PEA (analyte),"Beagle, dog, 0 min",0.053 µM
same,Measured concentration of PEA (analyte),"Beagle, dog, 10 min",0.59 µM
same,Measured concentration of PEA (analyte),"Beagle, dog, 20 min",0.48 µM
same,Measured concentration of PEA (analyte),"Beagle, dog, 30 min",0.43 µM
same,Measured concentration of PEA (analyte),"Beagle, dog, 60 min",0.20 µM
same,% Remaining of Initial,"Beagle, dog, 0 h",100%
same,% Remaining of Initial,"Beagle, dog, 10 min",4.4%
same,% Remaining of Initial,"Beagle, dog, 20 min",1.6%
same,% Remaining of Initial,"Beagle, dog, 0.5 h",1.4%
same,% Remaining of Initial,"Beagle, dog, 1 h",1.5%
same,microsomal CLint at 1 μM,"Beagle, dog",> 139 µL/min/mg
same,microsomal CLint at 1 μM,[1],618 µL/min/mg
same,half-life at 1 μM,"Beagle, dog",< 10 min
same,half-life at 1 μM,[1],2.2 min
same,Measured concentration of PEA (analyte),"CD-1, mouse, 0 min",0.29 µM
same,Measured concentration of PEA (analyte),"CD-1, mouse, 10 min",0.27 µM
same,Measured concentration of PEA (analyte),"CD-1, mouse, 20 min",0.12 µM
same,Measured concentration of PEA (analyte),"CD-1, mouse, 30 min",0.089 µM
same,Measured concentration of PEA (analyte),"CD-1, mouse, 60 min",0.0093 µM
same,% Remaining of Initial,"CD-1, mouse, 0 h",100%
same,% Remaining of Initial,"CD-1, mouse, 10 min",7.6%
same,% Remaining of Initial,"CD-1, mouse, 20 min",3.0%
same,% Remaining of Initial,"CD-1, mouse, 0.5 h",2.1%
same,% Remaining of Initial,"CD-1, mouse, 1 h",1.8%
same,microsomal CLint at 1 μM,"CD-1, mouse",> 139 µL/min/mg
same,microsomal CLint at 1 μM,[2],503 µL/min/mg
same,half-life at 1 μM,"CD-1, mouse",< 10 min
same,half-life at 1 μM,[2],2.8 min
"C[C@]12CC[C@H]3[C@@H](CCC4=CC(=O)CC[C@@]43C)[C@@H]1CC[C@@H]2O [Testosterone, testosterone, reference compound]",Half-life,"control compound, mouse liver microsomes",2.1 min
same,microsomal CLint,[3],41.9 µL/min/mg
same,microsomal CLint,[4],41.5 µL/min/mg
same,microsomal CLint,"Beagle, Dog liver microsomes, control compound",41.9 µL/min/mg
same,microsomal CLint,[5],59.3 µL/min/mg
same,half-life,[3],33 min
same,half-life,[4],33 min
same,half-life at 1 μM,"Beagle, Dog liver microsomes",33 min
same,half-life,[5],23 min
same,microsomal CLint,[6],444 µL/min/mg
same,microsomal CLint,"CD-1, mouse, Mouse liver microsomes, control compound",190 µL/min/mg
same,microsomal CLint,"CD-1, mouse, control compound, mouse liver microsomes",674 µL/min/mg
same,half-life,[6],3.1 min
same,half-life,"CD-1, mouse, Control compound, Mouse liver microsomes",4.9 min
same,half-life at 1 μM,"CD-1, mouse, Mouse liver microsomes",7.3 min
